Laboratory results from US8865659B2, “Compositions for prevention or treatment of Hepatitis C virus containing ginsenoside Rg3 as an active ingredient” (priority 2012, dated 2014).

How the values were obtained:
HCV CORE = assay: Western blotting against HCV CORE in JFH-1 infected Huh 7.5.1 cells; assay type: cell-based, Hepatitis C virus (JFH-1); conditions: 10 μM, 25 μM and 50 μM
Procedure: (§1) The experiment was carried out as follow. First, 200,000 Huh 7.5.1 cells were placed in a 60×15 mm cell culture dish. Next day, Japanese Fulminant Hepatitis-1 virus (JFH-1) stock vial which was stored in −70° C. refrigerator was taken out and thawed out in a container filled with ice-water. The culture medium was collected from the cultured 60×15 mm cell culture dish, washed with 1×PBS and collected, again. 1.5 ml of JFH-1 virus solution per 60×15 mm cell culture dish each was added. The dish was shaken to cover the surface sufficiently. The dish was laid in a 5% CO2 incubator at 37° C. for 6 hours and after that, the supernatant was draw out. 1×PBS was spread on the cell surface as slow as possible and after one time washing, cells were collected. 5 ml of cell culture media was added to control and JFH-1 treatments groups. At the last step of virus-infection, 5 ml CM and each […] of ginsenosides which was set to 50 mM concentration were added to the cell culture media. After that, the cell culture media was laid in a 5% CO2 incubator at 37° C. After 72 hours, the following steps were carried out.
As described in the above Example 3, the Huh 7.5.1 cells were treated with each 100 μM of seven ginsenosides (Ro, Re, Rg1, Rg2, Rg3, Rh1, Rh2). After 72 hours, a western blotting analysis was carried out for analyzing virus suppression effect against HCV CORE and cleaved PARP.
Specific western blotting analysis carried out was as follow. First, the above described samples were prepared, mixed with a sample buffer in tubes and heated at 100° C. for 10 minutes. The tubes were cooled on ice and centrifuged. The electrophoresis was carried out with the above samples and molecular weight markers, and then they were transferred to a PVDF membrane (hydrophobic). After blocking with 5% skin milk for an hour, each primary antibody was added. After staying overnight at 4° C., washings three times for every 10 minutes were conducted, and the blocking was carried out with 5% skin milk for an hour at the room temperature. After that, each secondary antibody was added, and the reaction for an hour and washing three times for every 10 minutes were conducted. Then, the membrane was stained by 1:1 mix with detection reagents A (Luminol Enhancer solution) and B (Peroxide solution) and developed with X ray film.
To examine the dose-dependent anti-virus effect of ginsenoside Rg3, western blotting analysis against cleaved PARP and HCV CORE were carried out with the samples of ginsenosides Rg3 treatment concentration at 10 μM, 25 μM, 50 μM and 100 μM each.
To examine the dose-dependent anti-virus effect of ginsenoside Rh2, western blotting analysis against cleaved PARP and HCV CORE were carried out with the samples of ginsenosides Rh2 treatment concentration at 10 μM, 25 μM and 50 μM each. […]

[1] = system: Huh 7.5.1 cells infected with JFH-1 virus; assay: Microscopic identification of virus suppression effect (cell shape, phase contrast microscope); assay type: cell-based; conditions: 100 μM; for shapes of Huh 7.5.1 cells: JFH-1 infected
Procedure: About 200,000 Huh 7.5.1 cells were added to a 60×15 mm cell culture dish and every 100 μM of seven ginsenosides (Ro, Re, Rg1, Rg2, Rg3, Rh1, Rh2) per 60×15 mm cell culture dish each was treated. Since it was necessary for ginsenosides in powder formulation to make solutions for the experiments, 50 mM basic concentration solutions for the seven ginsenosides each were prepared and the basic solutions were refrigerated at 4° C. until they were needed.
Non-treatment group (Control), Non-treatment group and DMSO 10 μl treatment group (Control+DMSO 10 μl), JFH-1 virus treatment group (Only JFH-1), JFH-1 virus and DMSO 10 μl treatments group (JFH-1+DMSO 10 μl), JFH-1 virus and Ro 100 uM treatments group (JFH-1+Ro 100 uM), JFH-1 virus and Re 100 uM treatments group (JFH-1+Re 100 uM), JFH-1 virus and Rg1 100 uM treatments group (JFH-1+Rg1 100 uM), JFH-1 virus and Rg2 100 uM treatments group (JFH-1+Rg2 100 uM), JFH-1 virus and Rg3 100 uM treatments group (JFH-1+Rg3 100 uM), JFH-1 virus and Rh1 100 uM treatments group (JFH-1+Rh1 100 uM), JFH-1 virus and Rh2 100 uM treatments group (JFH-1+Rh2 100 uM), JFH-1 virus and Rg1 100 uM treatments group (JFH-1+Rg1 100 uM).
as §1
As described in the above Example 3, each 100 μM of seven ginsenosides (Ro, Re, Rg1, Rg2, Rg3, Rh1, Rh2) was treated to Huh 7.5.1 cells. After 24 hours and 72 hours, the shapes of Huh 7.5.1 cells were observed using a phase contrast microscope (ECLIPSE TE300, Nicon) of 400× magnifications.

[2] = system: JFH-1 virus infected Huh 7.5.1 cell; assay: MTT assay, cytotoxicity of ginsenosides on liver cancer cell line; assay type: cell-based; conditions: 100 μM, 72 hours
Procedure: MTT assay was conducted to identify cytotoxicity of ginsenosides.
Specifically, the cells (Huh7.5.1) were seeded at the rate of 1×10^4 cells (in 100 μL)/well in 96 well plates, and incubated in 5% CO2 incubator for less than 24 hours. And after the samples were washed with 1×PBS once and treated with the rate of 50 ul JFH-1 virus/well, and replaced in the 5%, CO2 incubator for six hours. After taking out the cell samples from the incubator, the samples were washed with 1×PBS once and replaced in the culturing media comprising 10, 25, 50 and 100 μL concentration of the above stated seven (7) ginsenosides in Example 3, respectively. After the cells were incubated in 5% CO2 incubator for 72 hours, 20 μl of assay reagent, EZ Cytox, was seeded into each well with the care of no bubble producing. And then, the treated cells were incubated in 5% CO2 incubator for 2.5 hours, followed by examining absorbance at 420 nm with Microplate Reader (Molecular Devices, Minn.). DMSO was the solvent used when treating with ginsenoside, and both the control group and the cells infected with JFH-1 group were also treated with the solvent DMSO.

## CC(C)=CCC[C@](C)(O)[C@H]1CC[C@]2(C)[C@@H]1[C@H](O)C[C@@H]1[C@@]3(C)CC[C@H](O[C@@H]4O[C@H](CO)[C@@H](O)[C@H](O)[C@H]4O)C(C)(C)[C@@H]3CC[C@]12C [ginsenoside Rh2, reference compound]
HCV CORE
  virus suppression effect (HCV CORE), dose dependence: dose-dependent manner
[1]
  cell survival under treatment: all cells became extinct
[1]; 24 hours after treatment
  shapes of Huh 7.5.1 cells: No cell were remained due to the apoptosis of all cells
[1]; 72 hours after treatment
  shapes of Huh 7.5.1 cells: No cell were remained due to the apoptosis of all cells
[2]
  cytotoxicity (MTT assay): cytotoxic effect was shown predominantly
